Measurements from ChEMBL document CHEMBL5724806, “Unraveling interindividual differences and functional consequences of gut microbial metabolism of immunosuppressants” (2024).

Experiments:
Type in all cases: ADME
[1] = (§1) The drug is tested on Bifidobacterium adolescentis strain: DSM20083 for biotransformation under anaerobic condition. The drug concentrations were measured over 6 timepoints collected between 0 and 12 hours of incubation by liquid-chromatography-coupled mass spectrometry (LC–MS); design: dose 5 uM, timepoint 0, 1.5, 3, 6, 9, 12 hours; conditions: 5 µM
[2] = The drug is tested on Bacteroides caccae strain: DSM19024 for biotransformation under anaerobic condition. The drug concentrations were measured over 6 timepoints collected between 0 and 12 hours of incubation by liquid-chromatography-coupled mass spectrometry (LC–MS); design: dose 5 uM, timepoint 0, 1.5, 3, 6, 9, 12 hours; conditions: 5 µM
[3] = The drug is tested on Bacteroides stercoris strain: HM 1036 for biotransformation under anaerobic condition. The drug concentrations were measured over 6 timepoints collected between 0 and 12 hours of incubation by liquid-chromatography-coupled mass spectrometry (LC–MS); design: dose 5 uM, timepoint 0, 1.5, 3, 6, 9, 12 hours; conditions: 5 µM
[4] = The drug is tested on Parabacteroides merdae strain: DSM19495 for biotransformation under anaerobic condition. The drug concentrations were measured over 6 timepoints collected between 0 and 12 hours of incubation by liquid-chromatography-coupled mass spectrometry (LC–MS); design: dose 5 uM, timepoint 0, 1.5, 3, 6, 9, 12 hours; conditions: 5 µM
[5] = The drug is tested on Prevotella copri strain: DSM18205 for biotransformation under anaerobic condition. The drug concentrations were measured over 6 timepoints collected between 0 and 12 hours of incubation by liquid-chromatography-coupled mass spectrometry (LC–MS); design: dose 5 uM, timepoint 0, 1.5, 3, 6, 9, 12 hours; conditions: segatella copri, 5 µM
[6] = The drug is tested on Clostridium scindens strain: DSM5676 for biotransformation under anaerobic condition. The drug concentrations were measured over 6 timepoints collected between 0 and 12 hours of incubation by liquid-chromatography-coupled mass spectrometry (LC–MS); design: dose 5 uM, timepoint 0, 1.5, 3, 6, 9, 12 hours; conditions: 5 µM
[7] = The drug is tested on Coprococcus comes strain: ATCC27758 for biotransformation under anaerobic condition. The drug concentrations were measured over 6 timepoints collected between 0 and 12 hours of incubation by liquid-chromatography-coupled mass spectrometry (LC–MS); design: dose 5 uM, timepoint 0, 1.5, 3, 6, 9, 12 hours; conditions: 5 µM
[8] = The drug is tested on Dorea formicigenerans strain: DSM3992 for biotransformation under anaerobic condition. The drug concentrations were measured over 6 timepoints collected between 0 and 12 hours of incubation by liquid-chromatography-coupled mass spectrometry (LC–MS); design: dose 5 uM, timepoint 0, 1.5, 3, 6, 9, 12 hours; conditions: 5 µM
[9] = The drug is tested on Eubacterium eligens strain: DSM3376 for biotransformation under anaerobic condition. The drug concentrations were measured over 6 timepoints collected between 0 and 12 hours of incubation by liquid-chromatography-coupled mass spectrometry (LC–MS); design: dose 5 uM, timepoint 0, 1.5, 3, 6, 9, 12 hours; conditions: lachnospira eligens, 5 µM
[10] = The drug is tested on Lactobacillus gasseri strain: DSM20243 for biotransformation under anaerobic condition. The drug concentrations were measured over 6 timepoints collected between 0 and 12 hours of incubation by liquid-chromatography-coupled mass spectrometry (LC–MS); design: dose 5 uM, timepoint 0, 1.5, 3, 6, 9, 12 hours; conditions: 5 µM
[11] = The drug is tested on Streptococcus mitis strain: DSM12643 for biotransformation under anaerobic condition. The drug concentrations were measured over 6 timepoints collected between 0 and 12 hours of incubation by liquid-chromatography-coupled mass spectrometry (LC–MS); design: dose 5 uM, timepoint 0, 1.5, 3, 6, 9, 12 hours; conditions: 5 µM
[12] = The drug is tested on Enterococcus faecalis strain: ATCC29212 for biotransformation under anaerobic condition. The drug concentrations were measured over 6 timepoints collected between 0 and 12 hours of incubation by liquid-chromatography-coupled mass spectrometry (LC–MS); design: dose 5 uM, timepoint 0, 1.5, 3, 6, 9, 12 hours; conditions: 5 µM
[13] = (§2) The drug is tested on Actinomyces naeslundi strain: DSM43013 for biotransformation under microaerobic condition. The drug concentrations were measured over 6 timepoints collected between 0 and 12 hours of incubation by liquid-chromatography-coupled mass spectrometry (LC–MS); design: dose 5 uM, timepoint 0, 1.5, 3, 6, 9, 12 hours; conditions: actinomyces naeslundii, 5 µM
[14] = The drug is tested on Alloscardovia omnicolens strain: DSM21503 for biotransformation under microaerobic condition. The drug concentrations were measured over 6 timepoints collected between 0 and 12 hours of incubation by liquid-chromatography-coupled mass spectrometry (LC–MS); design: dose 5 uM, timepoint 0, 1.5, 3, 6, 9, 12 hours; conditions: 5 µM
[15] = The drug is tested on Capnocytophaga ochracea strain: DSM7271 for biotransformation under microaerobic condition. The drug concentrations were measured over 6 timepoints collected between 0 and 12 hours of incubation by liquid-chromatography-coupled mass spectrometry (LC–MS); design: dose 5 uM, timepoint 0, 1.5, 3, 6, 9, 12 hours; conditions: 5 µM
[16] = The drug is tested on Lactobacillus fermentum strain: DSM20052 for biotransformation under microaerobic condition. The drug concentrations were measured over 6 timepoints collected between 0 and 12 hours of incubation by liquid-chromatography-coupled mass spectrometry (LC–MS); design: dose 5 uM, timepoint 0, 1.5, 3, 6, 9, 12 hours; conditions: limosilactobacillus fermentum, 5 µM
[17] = The drug is tested on Lactobacillus ruminis strain: ATCC25644 for biotransformation under microaerobic condition. The drug concentrations were measured over 6 timepoints collected between 0 and 12 hours of incubation by liquid-chromatography-coupled mass spectrometry (LC–MS); design: dose 5 uM, timepoint 0, 1.5, 3, 6, 9, 12 hours; conditions: ligilactobacillus ruminis, 5 µM
[18] = The drug is tested on Streptococcus sanguinis strain: DSM20567 for biotransformation under microaerobic condition. The drug concentrations were measured over 6 timepoints collected between 0 and 12 hours of incubation by liquid-chromatography-coupled mass spectrometry (LC–MS); design: dose 5 uM, timepoint 0, 1.5, 3, 6, 9, 12 hours; conditions: 5 µM
[19] = as §1, with “the gut metagenome community of A-04 with ENA study accession number: PRJEB31790” for “Bifidobacterium adolescentis strain: DSM20083”, “7” for “6”; design: dose 5 uM, timepoint 0, 0.75, 1.5, 3, 6, 9, 12 hours; conditions: 5 µM
[20] = as §1, with “the gut metagenome community of A-08 with ENA study accession number: PRJEB31790” for “Bifidobacterium adolescentis strain: DSM20083”, “7” for “6”; design: dose 5 uM, timepoint 0, 0.75, 1.5, 3, 6, 9, 12 hours; conditions: 5 µM
[21] = as §1, with “the gut metagenome community of T-02 with ENA study accession number: PRJEB31790” for “Bifidobacterium adolescentis strain: DSM20083”, “7” for “6”; design: dose 5 uM, timepoint 0, 0.75, 1.5, 3, 6, 9, 12 hours; conditions: 5 µM
[22] = as §1, with “the gut metagenome community of T-03 with ENA study accession number: PRJEB31790” for “Bifidobacterium adolescentis strain: DSM20083”, “7” for “6”; design: dose 5 uM, timepoint 0, 0.75, 1.5, 3, 6, 9, 12 hours; conditions: 5 µM
[23] = as §2, with “the gut metagenome community of A-05 with ENA study accession number: PRJEB31790” for “Actinomyces naeslundi strain: DSM43013”, “7” for “6”; design: dose 5 uM, timepoint 0, 0.75, 1.5, 3, 6, 9, 12 hours; conditions: 5 µM
[24] = as §2, with “the gut metagenome community of A-06 with ENA study accession number: PRJEB31790” for “Actinomyces naeslundi strain: DSM43013”, “7” for “6”; design: dose 5 uM, timepoint 0, 0.75, 1.5, 3, 6, 9, 12 hours; conditions: 5 µM
[25] = as §2, with “the gut metagenome community of A-07 with ENA study accession number: PRJEB31790” for “Actinomyces naeslundi strain: DSM43013”, “7” for “6”; design: dose 5 uM, timepoint 0, 0.75, 1.5, 3, 6, 9, 12 hours; conditions: 5 µM
[26] = as §2, with “the gut metagenome community of A-10 with ENA study accession number: PRJEB31790” for “Actinomyces naeslundi strain: DSM43013”, “7” for “6”; design: dose 5 uM, timepoint 0, 0.75, 1.5, 3, 6, 9, 12 hours; conditions: 5 µM
[27] = as §2, with “the gut metagenome community of P-01 with ENA study accession number: PRJEB31790” for “Actinomyces naeslundi strain: DSM43013”, “7” for “6”; design: dose 5 uM, timepoint 0, 0.75, 1.5, 3, 6, 9, 12 hours; conditions: 5 µM
[28] = as §2, with “the gut metagenome community of P-03 with ENA study accession number: PRJEB31790” for “Actinomyces naeslundi strain: DSM43013”, “7” for “6”; design: dose 5 uM, timepoint 0, 0.75, 1.5, 3, 6, 9, 12 hours; conditions: 5 µM
[29] = as §2, with “the gut metagenome community of T-01 with ENA study accession number: PRJEB31790” for “Actinomyces naeslundi strain: DSM43013”, “7” for “6”; design: dose 5 uM, timepoint 0, 0.75, 1.5, 3, 6, 9, 12 hours; conditions: 5 µM
[30] = as §2, with “the gut metagenome community of T-05 with ENA study accession number: PRJEB31790” for “Actinomyces naeslundi strain: DSM43013”, “7” for “6”; design: dose 5 uM, timepoint 0, 0.75, 1.5, 3, 6, 9, 12 hours; conditions: 5 µM

Row | SMILES | Bacterial Biotransformation [1] | Bacterial Biotransformation [2] | Bacterial Biotransformation [3] | Bacterial Biotransformation [4] | Bacterial Biotransformation [5] | Bacterial Biotransformation [6] | Bacterial Biotransformation [7] | Bacterial Biotransformation [8] | Bacterial Biotransformation [9] | Bacterial Biotransformation [10] | Bacterial Biotransformation [11] | Bacterial Biotransformation [12] | Bacterial Biotransformation [13] | Bacterial Biotransformation [14] | Bacterial Biotransformation [15] | Bacterial Biotransformation [16] | Bacterial Biotransformation [17] | Bacterial Biotransformation [18] | Bacterial Biotransformation [19] | Bacterial Biotransformation [20] | further results
1 | C[C@]12CCC(=O)C=C1CC[C@@H]1[C@@H]2C(=O)C[C@@]2(C)[C@H]1CC[C@]2(O)C(=O)CO [CORTISONE] | Compound NOT metabolized | Compound NOT metabolized | Compound NOT metabolized | Compound NOT metabolized | Compound NOT metabolized | Compound metabolized | Compound NOT metabolized | Compound NOT metabolized | Compound NOT metabolized | Compound NOT metabolized | Compound NOT metabolized | Compound NOT metabolized | Compound NOT metabolized | Compound NOT metabolized | Compound NOT metabolized | Compound NOT metabolized | Compound NOT metabolized | Compound NOT metabolized | Compound metabolized | Compound metabolized | Bacterial Biotransformation [21]: Compound metabolized; Bacterial Biotransformation [22]: Compound NOT metabolized; Bacterial Biotransformation [23]: Compound metabolized; Bacterial Biotransformation [24]: Compound metabolized; Bacterial Biotransformation [25]: Compound metabolized; Bacterial Biotransformation [26]: Compound metabolized; Bacterial Biotransformation [27]: Compound metabolized; Bacterial Biotransformation [28]: Compound metabolized; Bacterial Biotransformation [29]: Compound metabolized; Bacterial Biotransformation [30]: Compound metabolized
2 | C[C@@H]1C[C@H]2[C@@H]3CCC4=CC(=O)C=C[C@]4(C)[C@@]3(F)[C@@H](O)C[C@]2(C)[C@@]1(O)C(=O)CO [DEXAMETHASONE] | Compound NOT metabolized | Compound NOT metabolized | Compound NOT metabolized | Compound NOT metabolized | Compound NOT metabolized | Compound metabolized | Compound NOT metabolized | Compound NOT metabolized | Compound NOT metabolized | Compound NOT metabolized | Compound NOT metabolized | Compound NOT metabolized | Compound NOT metabolized | Compound NOT metabolized | Compound NOT metabolized | Compound NOT metabolized | Compound NOT metabolized | Compound NOT metabolized | Compound metabolized | Compound NOT metabolized | Bacterial Biotransformation [21]: Compound metabolized; Bacterial Biotransformation [22]: Compound NOT metabolized; Bacterial Biotransformation [23]: Compound NOT metabolized; Bacterial Biotransformation [24]: Compound metabolized; Bacterial Biotransformation [25]: Compound metabolized; Bacterial Biotransformation [26]: Compound NOT metabolized; Bacterial Biotransformation [27]: Compound NOT metabolized; Bacterial Biotransformation [28]: Compound NOT metabolized; Bacterial Biotransformation [29]: Compound metabolized; Bacterial Biotransformation [30]: Compound NOT metabolized
3 | COc1ccc([C@@H]2Sc3ccccc3N(CCN(C)C)C(=O)[C@@H]2OC(C)=O)cc1 [DILTIAZEM] | Compound NOT metabolized | Compound NOT metabolized | Compound NOT metabolized | Compound metabolized | Compound NOT metabolized | Compound NOT metabolized | Compound NOT metabolized | Compound NOT metabolized | Compound NOT metabolized | Compound NOT metabolized | Compound NOT metabolized | Compound NOT metabolized | Compound NOT metabolized | Compound NOT metabolized | Compound metabolized | Compound NOT metabolized | Compound NOT metabolized | Compound NOT metabolized | Compound metabolized | Compound metabolized | Bacterial Biotransformation [21]: Compound NOT metabolized; Bacterial Biotransformation [22]: Compound NOT metabolized; Bacterial Biotransformation [23]: Compound metabolized; Bacterial Biotransformation [24]: Compound metabolized; Bacterial Biotransformation [25]: Compound metabolized; Bacterial Biotransformation [26]: Compound metabolized; Bacterial Biotransformation [27]: Compound metabolized; Bacterial Biotransformation [28]: Compound metabolized; Bacterial Biotransformation [29]: Compound metabolized; Bacterial Biotransformation [30]: Compound metabolized
